“And” between values parts separate entries of the source, which are not always exact repeats. Identical values can stand only once. Like-named read-outs stand apart in the source and are kept apart here.
Molecular target: T1, GST-hCAR-LBD (Homo sapiens, UniProt Q14994)
T1 construct: purchased Life Technologies (Carlsbad, Calif.) or Invitrogen (Carlsbad, Calif.)
T1 sequence (Q14994 109-352 limits assumed): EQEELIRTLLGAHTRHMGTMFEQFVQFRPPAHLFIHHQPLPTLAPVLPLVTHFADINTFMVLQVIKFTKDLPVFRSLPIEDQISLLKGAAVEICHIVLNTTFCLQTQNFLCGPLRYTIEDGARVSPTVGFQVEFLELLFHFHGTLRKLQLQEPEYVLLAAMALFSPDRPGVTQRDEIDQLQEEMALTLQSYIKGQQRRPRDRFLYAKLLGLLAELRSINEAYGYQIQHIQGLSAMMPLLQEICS
Assay: CoAct binding inverse agonist assay (LanthaScreen TR-FRET, fluorescent PGC-1α coactivator recruitment/repression)
Format: biochemical
Conditions: for inhibition at 70 µM: read-out: % Inhibition (70 μM); for fold increase of CAR inverse agonistic activity (potency) over lead chemical 1 (CINPA1) / fold increase of IC50 (decrease of activity) relative to lead chemical 1 (CINPA1): relative to chemical 1
Protocol: The effect of putative CAR ligands on the recruitment or repression of PGC-1α binding to hCAR was evaluated by using a LanthaScreen TR-FRET assay according to the manufacturer's instructions. […] The final DMSO concentration was 0.7% in all assay wells. […] The % Inhibition values were then plotted for individual chemicals. When applicable, the graphic software GraphPad Prism 5.04 (GraphPad Software, La Jolla, Calif., USA) was used to fit the data into a one-site competitive-binding equation to derive IC50 values. […] The assay plates were then briefly spun down and incubated for 1 hour at room temperature (25° C.). […] The final DMSO concentration was 0.7% in all assay wells. […] The % Inhibition values were then plotted for individual chemicals. When applicable, the graphic software GraphPad Prism 5.04 (GraphPad Software, La Jolla, Calif., USA) was used to fit the data into a one-site competitive-binding equation to derive IC50 values.

[1] = 70 μM compound, 42 μM clotrimazole = 100%, DMSO = 0%
[2] = read-out: IC50 (CAR inverse agonistic activity)

## CCOC(=O)Nc1ccc2c(c1)N(C(=O)CN1C(=O)C=CC1=O)c1ccccc1CC2 [Compound 15, ethyl (5-(2-(2,5-dioxo-2,5-dihydro-1H-pyrrol-1-yl)acetyl)-10,11-dihydro-5H-dibenzo[b,f]azepin-3-yl)carbamate]
[1]
  inhibition at 70 µM: 76%
[2]
  IC50: 39800 nM
Relative to chemical 13
  fold IC50 relative to chemical 13: 25 fold

## CCOC(=O)Nc1ccc2c(c1)N(C(=O)CN1CCCCC1)c1ccccc1CC2 [Compound 18, ethyl (5-(2-(piperidin-1-yl)acetyl)-10,11-dihydro-5H-dibenzo[b,f]azepin-3-yl)carbamate]
[1]
  inhibition at 70 µM: 119%
[2]
  IC50: 620 nM

## CC(C)OC(=O)Nc1ccc2c(c1)N(C(=O)CCN1CCN(CCO)CC1)c1ccccc1CC2 [compound 88]
Table 6, CINPA1 and commercially available analogs, read-out: IC50
  IC50: > 70000 nM
[2]
  IC50: > 70000 nM

## CCNC(=O)Nc1ccc2c(c1)N(C(=O)CN(CC)CC)c1ccccc1CC2 [Compound 5, 1-(5-(diethylglycyl)-10,11-dihydro-5H-dibenzo[b,f]azepin-3-yl)-3-ethylurea]
[1]
  inhibition at 70 µM: 94.9%
[2]
  IC50: 14400 nM

## CCN(CC)C(=O)N1c2ccccc2CCc2ccc(NC(=O)OC(C)C)cc21 [Compound 54]
Table 4, read-out: IC50
  IC50: 19 nM

## CCOC(=O)Nc1ccc2c(c1)N(C(=O)CN(CC)CC)c1ccccc1CC2 [Compound 70]
[1]
  % Inhibition (70 μM): 104.8%
Table 4, read-out: IC50
  IC50: 620 nM

## CC(C)OC(=O)Nc1ccc2c(c1)N(C(=O)Cn1cccc1)c1ccccc1CC2 [Compound 26, isopropyl (5-(2-(1H-pyrrol-1-yl)acetyl)-10,11-dihydro-5H-dibenzo[b,f]azepin-3-yl)carbamate]
[2]
  IC50: 21 nM and 22 nM
  fold increase of CAR inverse agonistic activity (potency) over lead chemical 1 (CINPA1): 32.8 fold

## CCN(CC)CC(=O)N1c2ccccc2CCc2ccc(NC(=O)NC(C)(C)C)cc21 [Compound 7, 1-(tert-butyl)-3-(5-(diethylglycyl)-10,11-dihydro-5H-dibenzo[b,f]azepin-3-yl)urea]
[1]
  inhibition at 70 µM: 101%
[2]
  IC50: 13000 nM

## O=C(Nc1ccc2c(c1)N(C(=O)Cn1cccc1)c1ccccc1CC2)OC1CCC1 [Compound 42, cyclobutyl (5-(2-(1H-pyrrol-1-yl)acetyl)-10,11-dihydro-5H-dibenzo[b,f]azepin-3-yl)carbamate]
[2]
  IC50: 20 nM

## O=C(Nc1ccc2c(c1)N(C(=O)N1CCCCC1)c1ccccc1CC2)OC1CCCCC1 [Compound 59]
Table 4, read-out: IC50
  IC50: 150 nM

## CCOC(=O)Nc1ccc2c(c1)N(C(=O)CN1CCOCC1)c1ccccc1CC2 [compound 80]
[2]
  IC50: 240 nM and 235 nM
  fold increase of CAR inverse agonistic activity (potency) over lead chemical 1 (CINPA1): about 3 fold

## Clc1ccccc1C(c1ccccc1)(c1ccccc1)n1ccnc1 [Clotrimazole, reference compound]
42 μM clotrimazole, positive control
  inhibition at 42 µM: 100%

## O=C(Nc1ccc2c(c1)N(C(=O)Cn1cccc1)c1ccccc1CC2)OC1CCCCC1 [Compound 44, cyclohexyl (5-(2-(1H-pyrrol-1-yl)acetyl)-10,11-dihydro-5H-dibenzo[b,f]azepin-3-yl)carbamate]
[2]
  IC50: 12 nM
  fold increase of CAR inverse agonistic activity (potency) over lead chemical 1 (CINPA1): approximately 59 fold

## CCC(C)OCC(=O)N1c2ccccc2CCc2ccc(NC(=O)OC(C)C)cc21 (centres unmarked) [Compound 31, isopropyl (5-(2-(sec-butoxy)acetyl)-10,11-dihydro-5H-dibenzo[b,f]azepin-3-yl)carbamate]
[2]
  IC50: 35 nM

## CCOCC(=O)N1c2ccccc2CCc2ccc(NC(=O)OC(C)C)cc21 [Compound 29, isopropyl (5-(2-ethoxyacetyl)-10,11-dihydro-5H-dibenzo[b,f]azepin-3-yl)carbamate]
[2]
  IC50: 11400 nM

## CCNCC(=O)N1c2ccccc2CCc2ccc(N)cc21 [Compound 72]
[1]
  inhibition at 70 µM: 27%

## CCOC(=O)Nc1ccc2c(c1)N(C(=O)COC(C)(C)C)c1ccccc1CC2 [Compound 19, ethyl (5-(2-(tert-butoxy)acetyl)-10,11-dihydro-5H-dibenzo[b,f]azepin-3-yl)carbamate]
[1]
  inhibition at 70 µM: 120%
[2]
  IC50: 71 nM
  fold increase of CAR inverse agonistic activity (potency) over lead chemical 1 (CINPA1): 9.7 fold

## CCOC(=O)Nc1ccc2c(c1)N(C(=O)CN1C(C)(C)CCCC1(C)C)c1ccccc1CC2 [Compound 14, ethyl (5-(2-(2,2,6,6-tetramethylpiperidin-1-yl)acetyl)-10,11-dihydro-5H-dibenzo[b,f]azepin-3-yl)carbamate]
[1]
  inhibition at 70 µM: 90.5%
[2]
  IC50: 4080 nM
Relative to chemical 18
  fold IC50 relative to chemical 18: over 6 fold

## CCOC(=O)Nc1ccc2c(c1)N(C(=O)CN1[C@H]3CC[C@@H]1CC3)c1ccccc1CC2 [Compound 20, ethyl (5-(2-((1s,4s)-7-azabicyclo[2.2.1]heptan-7-yl)acetyl)-10,11-dihydro-5H-dibenzo[b,f]azepin-3-yl)carbamate]
[1]
  inhibition at 70 µM: 118%

## CCNCC(=O)N1c2ccccc2CCc2ccc(NC(=O)OCC)cc21 [Compound 24, ethyl (5-(ethylglycyl)-10,11-dihydro-5H-dibenzo[b,f]azepin-3-yl)carbamate]
[1]
  inhibition at 70 µM: 88.4%
Table 4, read-out: IC50
  IC50: 24500 nM
  fold increase of IC50 (decrease of activity) relative to lead chemical 1 (CINPA1): over 35 fold

## CCOC(=O)Nc1ccc2c(c1)N(C(=O)CNC(C)(C)CC)c1ccccc1CC2 [Compound 21, ethyl (5-(tert-pentylglycyl)-10,11-dihydro-5H-dibenzo[b,f]azepin-3-yl)carbamate]
[1]
  inhibition at 70 µM: 116%
[2]
  IC50: 2060 nM
  fold increase of IC50 (decrease of activity) relative to lead chemical 1 (CINPA1): 3 fold

## O=C(Nc1ccc2c(c1)N(C(=O)Cc1ccco1)c1ccccc1CC2)OC1CCCCC1 [Compound 67]
Table 4, read-out: IC50
  IC50: 31 nM

## O=C(Nc1ccc2c(c1)N(C(=O)Cn1cccc1)c1ccccc1CC2)OC1CC1 [Compound 41, cyclopropyl (5-(2-(1H-pyrrol-1-yl)acetyl)-10,11-dihydro-5H-dibenzo[b,f]azepin-3-yl)carbamate]
[2]
  IC50: 22 nM

## CCN(CC)CC(=O)N1c2ccccc2CCc2ccc(NC(=O)NC(C)C)cc21 [Compound 6, 1-(5-(diethylglycyl)-10,11-dihydro-5H-dibenzo[b,f]azepin-3-yl)-3-isopropylurea]
[1]
  inhibition at 70 µM: 107%
[2]
  IC50: 4930 nM

## CCOC(=O)Nc1ccc2c(c1)N(C(=O)CN(CC)CC)c1ccccc1CC2 [Compound 1, ethyl (5-(diethylglycyl)-10,11-dihydro-5H-dibenzo[b,f]azepin-3-yl)carbamate]
[1]
  inhibition at 70 µM: 116%
Table 4, read-out: IC50
  IC50: 690 nM
[2]
  IC50: 690 nM

## CC(C)OC(=O)Nc1ccc2c(c1)N(C(=O)CN1CCCCC1)c1ccccc1CC2 [Compound 27, isopropyl (5-(2-(piperidin-1-yl)acetyl)-10,11-dihydro-5H-dibenzo[b,f]azepin-3-yl)carbamate]
[2]
  IC50: 250 nM

## O=C(Nc1ccc2c(c1)N(C(=O)n1cccc1)c1ccccc1CC2)OC1CCCCC1 [Compound 58]
Table 4, read-out: IC50
  IC50: 14 nM

## CCN(CC)CC(=O)N1c2ccccc2CCc2ccc(NC(=O)C(C)(C)C)cc21 [Compound 4, N-(5-(diethylglycyl)-10,11-dihydro-5H-dibenzo[b,f]azepin-3-yl)pivalamide]
[1]
  inhibition at 70 µM: 113%
[2]
  IC50: 1030 nM

## CCNCC(=O)N1c2ccccc2CCc2ccc(NC(=O)OCC)cc21 [Compound 71]
[1]
  % Inhibition (70 μM): 77.6%
Table 4, read-out: IC50
  IC50: 28000 nM

## CCOC(=O)Nc1ccc2c(c1)N(C(=O)CN(C(C)C)C(C)C)c1ccccc1CC2 [Compound 12, ethyl (5-(diisopropylglycyl)-10,11-dihydro-5H-dibenzo[b,f]azepin-3-yl)carbamate]
[1]
  inhibition at 70 µM: 110%
Table 4, read-out: IC50
  IC50: 3050 nM
  fold increase of IC50 (decrease of activity) relative to lead chemical 1 (CINPA1): more than 4 fold

## CCCN(CCC)CC(=O)N1c2ccccc2CCc2ccc(NC(=O)OC(C)(C)C)cc21 [Compound 37, tert-butyl (5-(dipropylglycyl)-10,11-dihydro-5H-dibenzo[b,f]azepin-3-yl)carbamate]
Table 4, read-out: IC50
  IC50: 153 nM
[2]
  IC50: 150 nM

## CC(C)OC(=O)Nc1ccc2c(c1)N(C(=O)OC1CCCC1)c1ccccc1CC2 [Compound 56]
Table 4, read-out: IC50
  IC50: 16 nM

## CC(C)OCC(=O)N1c2ccccc2CCc2ccc(NC(=O)OC(C)(C)C)cc21 [Compound 39, tert-butyl (5-(2-isopropoxyacetyl)-10,11-dihydro-5H-dibenzo[b,f]azepin-3-yl)carbamate]
[2]
  IC50: 120 nM

## CCOC(=O)Nc1ccc2c(c1)N(C(=O)CCN1CCCC1)c1ccccc1CC2 [Compound 23]
  inhibition at 70 µM: 118%
[2]
  IC50: 3180 nM

## O=C(Nc1ccc2c(c1)N(C(=O)Cc1cccs1)c1ccccc1CC2)OC1CCCCC1 [Compound 66]
Table 4, read-out: IC50
  IC50: 26 nM

## CC(C)OC(=O)Nc1ccc2c(c1)N(C(=O)Cc1cccs1)c1ccccc1CC2 [Compound 62]
Table 4, read-out: IC50
  IC50: 21 nM

## CC(C)OC(=O)Nc1ccc2c(c1)N(C(=O)COC1CC1)c1ccccc1CC2 [Compound 33, isopropyl (5-(2-cyclopropoxyacetyl)-10,11-dihydro-5H-dibenzo[b,f]azepin-3-yl)carbamate]
[2]
  IC50: 82 nM

## CCOC(=O)Nc1ccc2c(c1)N(C(=O)CCN(C)C)c1ccccc1CC2 [compound 86]
[2]
  IC50: 5010 nM

Reference: patent publication US9908890B2, “Selective inhibitors of constitutive androstane receptor” (ST. JUDE CHILDREN'S RESEARCH HOSPITAL, priority 2014, dated 2018)
